# According to ChEMBL document CHEMBL3856267, “Identification of 5,6-dihydroimidazo[2,1-b]thiazoles as a new class of antimicrobial agents” (Bioorg Med Chem, 2016):
# Activity calls are given as the source filed them. The rule behind the calls is not given here.
# How the values were obtained:
# Staphylococcus aureus [1] = experiment: Antimicrobial activity against methicillin-resistant Staphylococcus aureus ATCC 33591 measured after overnight incubation by microdilution broth method; format: functional
# Staphylococcus aureus [2] = experiment: Antimicrobial activity against methicillin-resistant Staphylococcus aureus ATCC BAA-44 measured after overnight incubation by microdilution broth method; format: functional
# Staphylococcus aureus [3] = experiment: Growth inhibition of methicillin-resistant Staphylococcus aureus ATCC 33591 at 64 ug/ml measured after overnight incubation by microdilution broth method relative to control; format: functional; settings: read-out: GI
# [4] = Hemolytic activity in human RBC at 128 ug/ml after 1 hr; format: ADME, cell-based, Erythrocyte; settings: red blood cells, read-out: Activity
# [5] = Selectivity ratio of MIC90 for methicillin-resistant Staphylococcus aureus ATCC 33591 to MIC90 for methicillin-resistant Staphylococcus aureus ATCC BAA-44; format: functional
# [6] = Therapeutic index, ratio of IC50 for HEK cells to MIC90 for methicillin-resistant Staphylococcus aureus ATCC BAA-44; format: cell-based, HEK293; settings: human, read-out: TI
# [7] = Selectivity ratio of MIC90 for vancomycin-intermediate Staphylococcus aureus Mu50 ATCC 700699 to MIC90 for methicillin-resistant Staphylococcus aureus ATCC BAA-44; format: functional
# [8] = Cytotoxicity against HEK cells assessed as reduction in cell viability after 48 hrs by MTT assay; format: toxicity, cell-based, HEK293; settings: human, read-out: MIC50
# [9] = Antimicrobial activity against vancomycin-intermediate Staphylococcus aureus Mu50 ATCC 700699 measured after overnight incubation by microdilution broth method; format: functional, Staphylococcus aureus subsp. aureus Mu50
# Staphylococcus aureus [10] = experiment: Antimicrobial activity against methicillin-resistant Staphylococcus aureus USA300-0114 infected in Galleria Mellonella assessed as increase in larvae survival at 10 times MIC measured 24 to 48 hrs post dose; format: functional
# Staphylococcus aureus [11] = experiment: Inhibition of Staphylococcus aureus DNA gyrase assessed as reduction in supercoiling of relaxed pHOT-1 after 30 mins by SDS based agarose gel electrophoresis
# Staphylococcus aureus [12] = experiment: Antimicrobial activity against methicillin-resistant Staphylococcus aureus USA300-0114 infected in Galleria Mellonella assessed as increase in survival of worms at 5 times MIC measured 24 to 48 hrs post dose; format: functional
SMILES,MIC90 (Staphylococcus aureus [1]),MIC90 (Staphylococcus aureus [2]),inhibition of growth at 64 µg/mL (Staphylococcus aureus [3]),"hemolysis at 1 h, 128 ug/ml [4]",Selectivity ratio [5],selectivity ratio [6],Selectivity ratio [7],CC50 at 48 h [8],MIC90 [9],Activity (Staphylococcus aureus [10]),inhibition (Staphylococcus aureus [11]),Activity (Staphylococcus aureus [12])
CC(C)C[C@H]1CN2C(c3ccc4ccccc4c3)=CSC2=N1,102 µM,51 µM,> 80%,< 2%,2,,,,,,,
N=C(N)NCCC[C@H]1CN2C(=N1)SC(c1ccccc1)=C2c1ccccc1,169 µM,338 µM,> 80%,< 2%,2,,,,,,,
c1ccc(C[C@H]2CN3C(=N2)SC(c2ccccc2)=C3c2ccccc2)cc1,173 µM,21 µM,> 80%,< 2%,2,,,,,,,
N=C(N)NCCC[C@@H]1CN2C(=N1)SC(c1ccccc1)=C2c1ccccc1,111 µM,338 µM,,< 2%,,0.3,2,100 µM,338 µM,,,
Cn1cc(C[C@H]2CN3C(c4ccc5ccccc5c4)=CSC3=N2)c2ccccc21,162 µM,20 µM,> 80%,< 2%,2,,,,,,,
Oc1ccc(C[C@@H]2CN3C(=N2)SC(c2ccccc2)=C3c2ccccc2)cc1,20 µM,31 µM,,< 2%,,2.3,2,72 µM,40 µM,,,
CC(C)C[C@@H]1CN2C(=N1)SC(c1ccccc1)=C2c1ccccc1,12 µM,11 µM,,< 2%,,5,2,56 µM,24 µM,Active,Dose-dependent effect,Active
Oc1ccc(C[C@H]2CN3C(=N2)SC(c2ccccc2)=C3c2ccccc2)cc1,84 µM,42 µM,> 80%,< 2%,2,,,,,,,
Cn1cc(C[C@H]2CN3C(=N2)SC(c2ccccc2)=C3c2ccccc2)c2ccccc21,151 µM,19 µM,> 80%,< 2%,2,,,,,,,
c1ccc(C[C@@H]2CN3C(=N2)SC(c2ccccc2)=C3c2ccccc2)cc1,21 µM,14.6 µM,,< 2%,,4.9,2,71 µM,42 µM,,,
N=C(N)NCCC[C@@H]1CN2C(c3ccc4ccccc4c3)=CSC2=N1,69 µM,69 µM,,< 2%,,3.7,2,257 µM,184 µM,,,
CN[C@H](CC(C)C)C(=O)N[C@H]1C(=O)N[C@@H](CC(N)=O)C(=O)N[C@H]2C(=O)N[C@H]3C(=O)N[C@H](C(=O)N[C@H](C(=O)O)c4cc(O)cc(O)c4-c4cc3ccc4O)[C@H](O)c3ccc(c(Cl)c3)Oc3cc2cc(c3O[C@@H]2O[C@H](CO)[C@@H](O)[C@H](O)[C@H]2O[C@H]2C[C@](C)(N)[C@H](O)[C@H](C)O2)Oc2ccc(cc2Cl)[C@H]1O [VANCOMYCIN],2 µg/mL,4 µg/mL,,,,,,,8 µg/mL,,,
Cn1cc(C[C@@H]2CN3C(c4ccc5ccccc5c4)=CSC3=N2)c2ccccc21,10 µM,10 µM,,< 2%,,2,2,20 µM,40 µM,,,
N=C(N)NCCC[C@H]1CN2C(c3ccc4ccccc4c3)=CSC2=N1,364 µM,182 µM,> 80%,< 2%,2,,,,,,,
CC(C)C[C@@H]1CN2C(c3ccc4ccccc4c3)=CSC2=N1,51 µM,51 µM,,< 2%,,0.7,2,36 µM,102 µM,,,
CC(C)C[C@H]1CN2C(=N1)SC(c1ccccc1)=C2c1ccccc1,48 µM,24 µM,> 80%,< 2%,2,,,,,,,
COc1cccc(OC)c1C(=O)N[C@@H]1C(=O)N2[C@@H]1SC(C)(C)[C@@H]2C(=O)O [METHICILLIN],> 128 µg/mL,> 128 µg/mL,,,,,,,> 128 µg/mL,,,
Cn1cc(C[C@@H]2CN3C(=N2)SC(c2ccccc2)=C3c2ccccc2)c2ccccc21,38 µM,9.5 µM,,< 2%,,6.6,2,63 µM,19 µM,,,
